Read-outs that look alike come from different tables or passages of the source.
System: NL-RLuc virus
Test: Inhibition of HIV replication (NL-RLuc luciferase reporter virus in MT-2 cells)
Assay type: cell-based
Settings: Human immunodeficiency virus 1, MT2, 120 h
In short: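 The read-out is Renilla luciferase expressed by replication-competent NL-RLuc (nef partly replaced), measured 5 days after infection of MT-2 cells grown with compound dilutions in 10% FBS RPMI. Median effect equation gives EC50 from ≥2 runs; A ≤100 nM, B 100 nM–1 uM, C >1 uM.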

Work on `Cc1nc(COCC2CCCC2)c(-c2ccc(OCCc3ccc(F)cc3)cc2)c(N2CCC(C)(C)CC2)c1[C@H](OC(C)(C)C)C(=O)O` [Example 13, (S)-2-(tert-Butoxy)-2-(6-((cyclopentylmethoxy)methyl)-4-(4,4-dimethylpiperidin-1-yl)-5-(4-(4-fluorophenethoxy)phenyl)-2-methylpyridin-3-yl)acetic acid] yielded an EC50 (read-out: Activity) of less than 0.1 µM.

In the case of `Cc1cc(F)ccc1CN1CCc2cc(-c3c(CN4CCCC4)nc(C)c([C@H](OC(C)(C)C)C(=O)O)c3N3CCC(C)(C)CC3)ccc2C1` [Example 118, (S)-2-(tert-Butoxy)-2-(4-(4,4-dimethylpiperidin-1-yl)-5-(2-(4-fluoro-2-methylbenzyl)-1,2,3,4-tetrahydroisoquinolin-6-yl)-2-methyl-6-(pyrrolidin-1-ylmethyl)pyridin-3-yl)acetic acid], the EC50 (read-out: Activity) is reported as less than 0.1 µM and the EC50 (read-out: EC50 μM) is reported as 0.002 µM.

`COC1CCN(Cc2nc(C)c([C@H](OC(C)(C)C)C(=O)O)c(N3CCC(C)(C)CC3)c2-c2ccc(OCCc3ccc(F)cc3)cc2)CC1` [Example 85, (S)-2-(tert-Butoxy)-2-(4-(4,4-dimethylpiperidin-1-yl)-5-(4-(4-fluorophenethoxy)phenyl)-6-((4-methoxypiperidin-1-yl)methyl)-2-methylpyridin-3-yl)acetic acid] was tested, and the EC50 (read-out: Activity) was less than 0.1 µM and the EC50 (read-out: EC50 μM) was 0.001 µM.

Work on `CO/C=C/c1nc(C)c([C@H](OC(C)(C)C)C(=O)O)c(N2CCC(C)(C)CC2)c1-c1ccc(OCCc2ccc(F)cc2)cc1` [Example 57, (S,E)-2-(tert-Butoxy)-2-(4-(4,4-dimethylpiperidin-1-yl)-5-(4-(4-fluorophenethoxy)phenyl)-6-(2-methoxyvinyl)-2-methylpyridin-3-yl)acetic acid] yielded an EC50 (read-out: Activity) of less than 0.1 µM and an EC50 (read-out: EC50 μM) of 0.012 µM.

`Cc1cc(F)ccc1CN1CCc2cc(-c3c(CN4CC[C@H](F)C4)nc(C)c([C@H](OC(C)(C)C)C(=O)O)c3N3CCC(C)(C)CC3)ccc2C1` [Example 132, (S)-2-(tert-Butoxy)-2-(4-(4,4-dimethylpiperidin-1-yl)-5-(2-(4-fluoro-2-methylbenzyl)-1,2,3,4-tetrahydroisoquinolin-6-yl)-6-(((S)-3-fluoropyrrolidin-1-yl)methyl)-2-methylpyridin-3-yl)acetic acid] showed an EC50 (read-out: Activity) of less than 0.1 µM.

`Cc1nc(COc2ccc(Cl)cc2)c(-c2ccc(OCCc3ccc(F)cc3)cc2)c(N2CCC(C)(C)CC2)c1[C@H](OC(C)(C)C)C(=O)O` [Example 6, (S)-2-(tert-butoxy)-2-(6-((4-chlorophenoxy)methyl)-4-(4,4-dimethylpiperidin-1-yl)-5-(4-(4-fluorophenethoxy)phenyl)-2-methylpyridin-3-yl)acetic acid] gave an EC50 (read-out: Activity) of less than 0.1 µM and an EC50 (read-out: EC50 μM) of 0.02 µM.

`Cc1nc(-c2cn(C)nn2)c(-c2ccc(OCCc3ccc(F)cc3)cc2)c(N2CCC(C)(C)CC2)c1[C@H](OC(C)(C)C)C(=O)O` [Example 169, (S)-2-(tert-butoxy)-2-(4-(4,4-dimethylpiperidin-1-yl)-5-(4-(4-fluorophenethoxy)phenyl)-2-methyl-6-(1-methyl-1H-1,2,3-triazol-4-yl)pyridin-3-yl)acetic acid] showed an EC50 (read-out: Activity) of less than 0.1 µM.

For `Cc1nnc(C(=O)NCc2nc(C)c([C@H](OC(C)(C)C)C(=O)O)c(N3CCC(C)(C)CC3)c2-c2ccc(OCCc3ccc(F)cc3)cc2)o1` [Example 104, (S)-2-(tert-Butoxy)-2-(4-(4,4-dimethylpiperidin-1-yl)-5-(4-(4-fluorophenethoxy)phenyl)-2-methyl-6-((5-methyl-1,3,4-oxadiazole-2-carboxamido)methyl)pyridin-3-yl)acetic acid], the EC50 (read-out: Activity) was less than 0.1 µM.

Molecule `CC1(C)CCN(c2c([C@H](OC(C)(C)C)C(=O)O)cnc(CO)c2-c2ccc(OCCc3ccc(F)cc3)cc2)CC1` [Example 181, (S)-2-(tert-butoxy)-2-(4-(4,4-dimethylpiperidin-1-yl)-5-(4-(4-fluorophenethoxy)phenyl)-6-(hydroxymethyl)pyridin-3-yl)acetic acid] has an EC50 (read-out: Activity) of less than 0.1 µM.

With `Cc1cc(F)ccc1CN1CCc2cc(-c3c(CN4CCC(F)CC4)nc(C)c([C@H](OC(C)(C)C)C(=O)O)c3N3CCC(C)(C)CC3)ccc2C1` [Example 130, (S)-2-(tert-Butoxy)-2-(4-(4,4-dimethylpiperidin-1-yl)-5-(2-(4-fluoro-2-methylbenzyl)-1,2,3,4-tetrahydroisoquinolin-6-yl)-6-((4-fluoropiperidin-1-yl)methyl)-2-methylpyridin-3-yl)acetic acid] the EC50 (read-out: Activity) was less than 0.1 µM.

`Cc1cc(F)ccc1CN1CCc2cc(-c3c(COCC4COC4)nc(C)c([C@H](OC(C)(C)C)C(=O)O)c3N3CCC(C)(C)CC3)ccc2C1` [Example 154, (S)-2-(tert-Butoxy)-2-(4-(4,4-dimethylpiperidin-1-yl)-5-(2-(4-fluoro-2-methylbenzyl)-1,2,3,4-tetrahydroisoquinolin-6-yl)-2-methyl-6-((oxetan-3-ylmethoxy)methyl)pyridin-3-yl)acetic acid] showed an EC50 (read-out: Activity) of less than 0.1 µM.

`Cc1nc(COC2CCCC2)c(-c2ccc(OCCc3ccc(F)cc3)cc2)c(N2CCC(C)(C)CC2)c1[C@H](OC(C)(C)C)C(=O)O` [Example 11, (S)-2-(tert-Butoxy)-2-(6-((cyclopentyloxy)methyl)-4-(4,4-dimethylpiperidin-1-yl)-5-(4-(4-fluorophenethoxy)phenyl)-2-methylpyridin-3-yl)acetic acid] was tested, and the EC50 (read-out: Activity) was less than 0.1 µM.

Molecule `Cc1nnc(C(=O)N(C)Cc2nc(C)c([C@H](OC(C)(C)C)C(=O)O)c(N3CCC(C)(C)CC3)c2-c2ccc(OCCc3ccc(F)cc3)cc2)o1` [Example 103, (S)-2-(tert-butoxy)-2-(6-((N,5-dimethyl-1,3,4-oxadiazole-2-carboxamido)methyl)-4-(4,4-dimethylpiperidin-1-yl)-5-(4-(4-fluorophenethoxy)phenyl)-2-methylpyridin-3-yl)acetic acid] has an EC50 (read-out: Activity) of less than 0.1 µM.

`Cc1nc(CNCc2cocn2)c(-c2ccc(OCCc3ccc(F)cc3)cc2)c(N2CCC(C)(C)CC2)c1[C@H](OC(C)(C)C)C(=O)O` [Example 78, (S)-2-(tert-Butoxy)-2-(4-(4,4-dimethylpiperidin-1-yl)-5-(4-(4-fluorophenethoxy)phenyl)-2-methyl-6-(((oxazol-4-ylmethyl)amino)methyl)pyridin-3-yl)acetic acid] showed an EC50 (read-out: Activity) of less than 0.1 µM.

Molecule `COCCc1nc(C)c([C@H](OC(C)(C)C)C(=O)O)c(N2CCC(C)(C)CC2)c1-c1ccc(OCCc2ccc(F)cc2)cc1` [Example 58, (S)-2-(tert-butoxy)-2-(4-(4,4-dimethylpiperidin-1-yl)-5-(4-(4-fluorophenethoxy)phenyl)-6-(2-methoxyethyl)-2-methylpyridin-3-yl)acetic acid] has an EC50 (read-out: Activity) of less than 0.1 µM.

`CSCc1nc(C)c([C@H](OC(C)(C)C)C(=O)O)c(N2CCC(C)(C)CC2)c1-c1ccc(OCCc2ccc(F)cc2)cc1` [Example 17, (S)-2-(tert-Butoxy)-2-(4-(4,4-dimethylpiperidin-1-yl)-5-(4-(4-fluorophenethoxy)phenyl)-2-methyl-6-((methylthio)methyl)pyridin-3-yl)acetic acid] was tested, and the EC50 (read-out: Activity) was less than 0.1 µM.

Molecule `CC1(C)CCN(c2c([C@H](OC(C)(C)C)C(=O)O)cnc(CCl)c2-c2ccc(OCCc3ccc(F)cc3)cc2)CC1` [Example 184, (S)-2-(tert-Butoxy)-2-(6-(chloromethyl)-4-(4,4-dimethylpiperidin-1-yl)-5-(4-(4-fluorophenethoxy)phenyl)pyridin-3-yl)acetic acid] has an EC50 (read-out: Activity) of less than 0.1 µM and an EC50 (read-out: EC50 μM) of 0.04 µM.

Reference: US10351546B2, “Pyridin-3-yl acetic acid derivatives as inhibitors of human immunodeficiency virus replication” (priority 2015, dated 2019)
